# Measured values from US20240108740A1, “THERAPEUTIC COMPOSITIONS INCLUDING SPN10 AND USES THEREOF” (Stealth BioTherapeutics Inc., priority 2022, published 2024).
# Residues, ends and D or L forms follow the SMILES beside them.
# Assays:
# [1] = system: Ang II-induced hypertensive cardiomyopathy; assay: Ang II (4 weeks) induced cardiac NADPH oxidase, p38 MAPK and apoptosis; assay type: in vivo
# Source text: It is anticipated that SPN10(s) (with or without aromatic-cationic peptides) or peptide conjugates act downstream of NADPH oxidase and will reduce activation of p38 MAPK and apoptosis in response to Ang II. […] Mitochondrial ROS, either directly, or indirectly by activating apoptosis signal regulating kinase, may induce apoptosis. It is anticipated that Ang II will induce cardiac apoptosis, which will be shown through an increase in cleaved caspase-3.
# [2] = system: isolated mouse liver mitochondria; assay: Example 20: spontaneous and antimycin-induced H2O2 production by isolated mitochondria
# Procedure: Livers will be harvested from mice, homogenized in ice-cold buffer, and centrifuged at 13800×g for 10 min. The pellet will be washed once, re-suspended in 0.3 mL of wash buffer, and placed on ice until use. H2O2 will be measured using luminol chemiluminescence as described previously (Li, et al., Biochim. Biophys. Acta 1428, 1-12 (1999). 0.1 mg mitochondrial protein will be added to 0.5 mL potassium phosphate buffer (100 mM, pH 8.0) in the presence of vehicle, peptide conjugates, aromatic-cationic peptides, or SPN10(s) with or without aromatic-cationic peptides. 25 mM luminol and 0.7 IU horseradish peroxidase will be added, and chemiluminescence will be monitored with a Chronolog Model 560 aggregometer (Havertown, PA) for 20 minutes at 37° C. The amount of H2O2 produced will be quantified as the area under the curve (AUC) over 20 min, and all data will be normalized to AUC produced by mitochondria alone.
# Sprague-Dawley rats = assay: Example 32: mitochondrial dysfunction in rats fed a high-fat diet; settings: rat, in vivo
# Procedure: Animals and reagents. Thirty male Sprague-Dawley rats will be obtained from Charles River Laboratory (Wilmington, MA) and housed in a temperature (22° C.) and light controlled room with free access to food and water. Twenty of the animals will be maintained on a high (60%) fat diet (Research Dyets, Bethlehem, PA). Skeletal muscle will be obtained from anesthetized animals (100 mg/kg i.p. ketamine-xylazine). After surgery, animals will be sacrificed by cervical dislocation while anesthetized. Amplex Red Ultra reagent will be obtained from Molecular Probes (Eugene, OR). Stigmatellin and horseradish peroxidase (HRP) will be obtained from Fluka Biochemika (Buchs, Switzerland). All other chemicals will be purchased from Sigma-Aldrich (St. Louis, MO). […]
# Mitochondrial respiration and H2O2 production measurements. […] Mitochondrial H2O2 production will be measured at 30° C. during state 4 respiration in buffer Z (10 μg/mL oligomycin) by continuously monitoring oxidation of Amplex Red using a Spex Fluoromax 3 (Jobin Yvon, Ltd.) spectrofluorometer with temperature control and magnetic stirring at >1000 rpm. […] After baseline fluorescence (reactants only) is established, the reaction will be initiated by addition of a permeabilized fiber bundle to 300 μL of buffer Z containing 5 μM Amplex Red and 0.5 U/mL HRP, with succinate at […]. […]
smiles,measurement,setting,value
"N=C(N)NCCC[C@H](NC(=O)[C@@H](N)Cc1c[nH]c2ccccc12)C(=O)N[C@@H](Cc1c[nH]c2ccccc12)C(=O)N[C@@H](CCCCN)C(N)=O [SPN10, H-L-Trp-L-Arg-L-Trp-L-Lys-NH2] (H-WRWK-NH2)",Ang II-increased cardiac NADPH oxidase activity,[1]; 4 weeks of Ang II,not be changed
same,activation of caspase-3 caused by Ang II (cleaved caspase-3),[1]; Ang II,completely prevent
same,phosphorylation of p38 MAPK,[1]; Ang II for 4 weeks,significantly and nearly fully attenuated
same,spontaneous production of H2O2,[2],dose-dependently reduce the spontaneous production of H2O2
same,production of H2O2 induced by antimycin,[2]; antimycin,dose-dependently reduce the production of H2O2 induced by antimycin
same,mitochondrial dysfunction under a high-fat diet,Sprague-Dawley rats,reduce mitochondrial dysfunction
